Article PMC11477717, “Synthesis of Carborane–Thiazole Conjugates as Tyrosinase and 11β-Hydroxysteroid Dehydrogenase Inhibitors: Antiproliferative Activity and Molecular Docking Studies” (Molecules, 2024)
Like-named read-outs stand apart in the source and are kept apart here.

Tests used:
[1] = system: A172 (human brain glioblastoma); experiment: MTT antiproliferative assay, A172; assay type: cell-based; settings: for IC50: MTT, 72 h, A172 cells, read-out: IC50 ± SD A172; for SI HUVEC/A172: selectivity index = IC50 normal cell line / IC50 cancer cell line
Experimental: (§1) All cell lines were obtained from ATCC, and all chemicals were purchased from Sigma-Aldrich, St. Louis, MO, USA. […] All media were supplemented with antibiotic and antimycotic solutions, according to the manufacturers’ instructions. MTT cytotoxicity assessments were performed as described previously. […] The cells counted using an automated cell counter (Countess® II FL, Invitrogen by Thermo Fisher Scientific Inc., Waltham, MA, USA) were plated in 96-well plates (Nunc Edge 2F, Thermo Fisher Scientific Inc.) at a density of 0.1 × 10^4 per well. After an additional 72 h, cells underwent an MTT cytotoxicity assay (see below). The IC50 values were calculated using ED50plus v 1.0 freeware software (Instituto Nacional de Enfermedades Respiratorias, Mexico City, Mexico). Each cell line was tested in three independent replicates.
(§2) After the incubation time was complete, the medium was removed and crystals of formazan were solubilized in pure isopropanol. The absorbance readout was conducted immediately using a plate reader, Multiskan Spectrum, at 570 nm (Thermo Fisher Scientific Inc., Waltham, MA, USA). The background optical density was measured in the wells filled with the culture medium, without any cells.

B16F10 (murine melanoma) = experiment: MTT antiproliferative assay, B16F10; assay type: cell-based; settings: for IC50: MTT, 72 h, B16F10 cells, read-out: IC50 ± SD B16F10; for SI HUVEC/ B16F10: selectivity index = IC50 normal cell line / IC50 cancer cell line
Experimental: as §1, §2

[2] = system: MDA-MB-231 (human breast adenocarcinoma); experiment: MTT antiproliferative assay, MDA-MB-231; assay type: cell-based; settings: for IC50: MTT, 72 h, MDA-MB-231 cells, read-out: IC50 ± SD MDA-MB-231; for SI HUVEC/ MDA-MB-231: selectivity index = IC50 normal cell line / IC50 cancer cell line
Experimental: as §1, §2

[3] = system: HUVEC (human umbilical vein endothelial cells); experiment: MTT antiproliferative assay, HUVEC healthy control; assay type: cell-based; settings: 72 h, HUVEC normal cells, read-out: IC50 ± SD HUVEC
Experimental: All cell lines were obtained from ATCC, and all chemicals were purchased from Sigma-Aldrich, St. Louis, MO, USA. Briefly, cells were cultivated in a controlled atmosphere using DMEM medium with fetal bovine serum (FBS) at a final concentration of 10% (A-172), an L15 medium with 15% FBS, cultivated without CO2 (MDA-MB-231), F12K with a heparin final concentration of 0.1 mg/mL, endothelial cell growth supplement with a final concentration of 0.03 mg/mL (HUVEC), and RPMI with 5% FBS. All media were supplemented with antibiotic and antimycotic solutions, according to the manufacturers’ instructions. MTT cytotoxicity assessments were performed as described previously. Briefly, cell lines A172, B16F10, MDA-MB-231, and HUVEC were seeded 24 h prior to the addition of the tested compounds. The cells counted using an automated cell counter (Countess® II FL, Invitrogen by Thermo Fisher Scientific Inc., Waltham, MA, USA) were plated in 96-well plates (Nunc Edge 2F, Thermo Fisher Scientific Inc.) at a density of 0.1 × 10^4 per well. After an additional 72 h, cells underwent an MTT cytotoxicity assay (see below). The IC50 values were calculated using ED50plus v 1.0 freeware software (Instituto Nacional de Enfermedades Respiratorias, Mexico City, Mexico). Each cell line was tested in three independent replicates.
as §2, with “Twenty microliters of an MTT solution (MTT: 3-(4,5-dimethylthiazol-2-yl)-2,5-diphenyl tetrazolium bromide, stock solution: 5 mg/mL) was added to each cell line for 2 h (A172, B16F10, MDA-MB-231, and HUVEC). After” for “After”

mushroom tyrosinase [4] = target: T1, mushroom tyrosinase (Agaricus bisporus, UniProt C7FF04); experiment: Mushroom tyrosinase inhibition assay (L-DOPA, dopachrome 475 nm); assay type: biochemical
T1 construct: purchased Sigma-Aldrich
T1 sequence (C7FF04 1-392 limits assumed): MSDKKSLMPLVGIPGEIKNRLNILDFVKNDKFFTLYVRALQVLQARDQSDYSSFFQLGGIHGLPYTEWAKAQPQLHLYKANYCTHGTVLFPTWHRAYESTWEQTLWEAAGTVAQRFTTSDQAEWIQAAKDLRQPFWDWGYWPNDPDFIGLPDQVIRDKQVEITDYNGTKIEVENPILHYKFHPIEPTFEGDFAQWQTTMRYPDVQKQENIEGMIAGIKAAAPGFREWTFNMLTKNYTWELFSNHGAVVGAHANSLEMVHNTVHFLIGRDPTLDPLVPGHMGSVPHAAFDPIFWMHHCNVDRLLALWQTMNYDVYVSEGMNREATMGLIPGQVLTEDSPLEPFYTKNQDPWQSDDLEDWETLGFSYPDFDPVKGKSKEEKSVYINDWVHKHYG
Experimental: The mushroom tyrosinase (Sigma-Aldrich) inhibition was performed following previously reported methods. […] The inhibitor solutions were prepared in DMSO with an initial concentration of 1 mM. Different aliquots were added to the solution containing the buffer, L-DOPA, and EDTA, with the enzyme being added last. […] Ascorbic acid was used as a reference inhibitor with an initial concentration of 1 mM. The IC50 values were calculated from the equation generated via exponential fit of the experimental data.

mushroom tyrosinase [5] = target: T1, mushroom tyrosinase; experiment: Kinetic analysis of the inhibition of tyrosinase (Lineweaver-Burk); assay type: biochemical; settings: compound at 0.05 mM; for Mechanism of Inhibition: Lineweaver-Burk plots; for Vmax: L-DOPA 100-250 µM
Experimental: A series of experiments were performed to determine the inhibition kinetics of compounds by following the already reported method. The inhibitor concentrations for compounds were 50 and 100 µM. The substrate L-DOPA concentration was between 100 and 250 µM in all kinetic studies. Maximal initial velocity was determined from the initial linear portion of absorbance up to ten minutes after the addition of the enzyme. The inhibition type of the enzyme, Michaelis constant (KM), and maximal velocity (Vmax) were determined by Lineweaver–Burk plots of the inverse of velocities (1/V) versus the inverse of substrate concentration 1/[L-DOPA] mM^−1.

11β-HSD1 = target: T2, 11β-HSD1 (Homo sapiens, UniProt P28845); experiment: Inhibition of 11β-HSD1 assay (cortisone to cortisol, microsomes, cortisol ELISA); assay type: biochemical; settings: for IC50: 5 inhibitor concentrations, three independent determinations, read-out: IC50 ± SD 11β-HSD1; for % of 11β-HSD1 Inhibition 10 μM: inhibitor 10 µM, 150 min, 37 °C
T2 construct: tissue XenoTech Lot No. 1410013; host or cells: pooled human liver microsomes
T2 sequence (P28845 whole entry): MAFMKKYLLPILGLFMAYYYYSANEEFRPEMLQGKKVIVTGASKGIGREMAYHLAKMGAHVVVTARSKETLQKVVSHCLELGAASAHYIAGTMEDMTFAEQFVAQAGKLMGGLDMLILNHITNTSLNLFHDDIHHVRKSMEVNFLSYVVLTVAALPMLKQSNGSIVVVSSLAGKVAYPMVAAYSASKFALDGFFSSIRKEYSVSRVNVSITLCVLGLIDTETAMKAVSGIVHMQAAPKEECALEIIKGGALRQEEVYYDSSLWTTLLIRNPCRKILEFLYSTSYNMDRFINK
Experimental: L160706125, was obtained from Cloud-Clone Corp. PBS, Lot No. H161008, was obtained from Pan Biotech. […] L191113457, was obtained from Cloud-Clone Corp. […] The microplates were incubated on an orbital shaker for 150 min at 37 °C. […] The quantity of cortisol formed from cortisone was determined using a cortisol ELISA kit, […].

11β-HSD2 = target: T3, 11β-HSD2 (Homo sapiens, UniProt P80365); experiment: Inhibition of 11β-HSD2 assay (cortisol to cortisone, microsomes, cortisol ELISA); assay type: biochemical; settings: inhibitor 10 µM, 150 min, 37 °C
T3 construct: Human kidney microsomes, mixed gender, 0.5 mL, 10 mg/mL, Lot No. 1710160, were obtained from XenoTech; tissue XenoTech Lot No. 1710160; host or cells: human kidney microsomes
T3 sequence (P80365 1-405): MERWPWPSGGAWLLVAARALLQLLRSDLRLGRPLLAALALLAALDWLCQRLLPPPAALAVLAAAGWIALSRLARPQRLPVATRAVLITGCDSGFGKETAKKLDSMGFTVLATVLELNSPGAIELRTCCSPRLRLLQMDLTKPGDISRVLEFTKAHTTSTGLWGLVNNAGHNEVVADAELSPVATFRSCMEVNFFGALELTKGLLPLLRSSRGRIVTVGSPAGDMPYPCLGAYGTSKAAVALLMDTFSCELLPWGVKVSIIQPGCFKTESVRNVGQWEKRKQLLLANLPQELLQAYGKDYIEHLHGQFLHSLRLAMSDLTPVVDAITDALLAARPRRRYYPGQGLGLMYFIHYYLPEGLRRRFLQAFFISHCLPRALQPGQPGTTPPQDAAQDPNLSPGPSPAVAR
Experimental: The Enzyme-Linked Immunosorbent Assay (ELISA) Kit for 11-Beta-Hydroxysteroid Dehydrogenase Type 1, Lot No. L160706125, was obtained from Cloud-Clone Corp. PBS, Lot No. H161008, was obtained from Pan Biotech. […] The Enzyme-Linked Immunosorbent Assay (ELISA) Kit for 11-Beta-Hydroxysteroid Dehydrogenase Type 2, Lot No. L191113457, was obtained from Cloud-Clone Corp.
The oxidation reaction of cortisol to cortisone was carried out on 96-well microtiter plates in the presence of the enzyme 11β-HSD2 in a total volume of 100 µL. To this end, 60 µL of phosphate buffer (pH 7.4), 10 µL of a microsomes(0.12 µg/mL […]) solution in PBS (final quantity 2.5 µg), 20 µL of substrate mixture cortisol/NAD (final concentration 200 nM/2 mM), and 10 µL of the appropriate inhibitor solution (solvent DMSO/water 1/99, final concentration 10 µM) were placed in each well. The microplates were incubated on an orbital shaker for 150 min at 37 °C. […] The quantity of unreacted cortisol was determined using a cortisol ELISA kit DiaMetra.

[6] = L-DOPA 0.17 mM, pH 6.8, room temperature, read-out: IC50 ± SD mushroom tyrosinase

| IC50 [1] [µM] | IC50 (B16F10 (murine melanoma)) [µM] | IC50 [2] [µM] | IC50 (mushroom tyrosinase [4]; [6]) [mM] | Mechanism of Inhibition (mushroom tyrosinase [5]) | Vmax (mushroom tyrosinase [5]) [mM/min] | IC50 (11β-HSD1) [µM] | % of 11β-HSD1 Inhibition 10 μM (11β-HSD1) [%] | % of 11β-HSD2 Inhibition 10 μM (11β-HSD2) [%] | Substance | SI HUVEC/A172 [1] | SI HUVEC/ B16F10 (B16F10 (murine melanoma)) | SI HUVEC/ MDA-MB-231 [2] | IC50 [3] [µM] | IC50 (mushroom tyrosinase [4]; rounded values in SAR summary, unit mM, read-out: IC50 tyrosinase inhibition) [mM] |
| --- | --- | --- | --- | --- | --- | --- | --- | --- | --- | --- | --- | --- | --- | --- |
| 6.07 ± 1.06 | 5.11 | 6.96 ± 0.74 | 0.105 ± 0.00908 | Uncompetitive | 0.0521 | 7.05 ± 0.25 | 73.51 | 32.55 | 2-(2-(1,2-Dicarba-closo-Dodecaboranylmethylene)Hydrazinyl)-4-(4-Nitrophenyl)Thiazole [4g] | >1.65 | >1.96 | >1.44 | > 10 | – |
| 5.77 ± 0.96 | 5.03 ± 0.69 | 6.54 ± 0.52 | 0.13 ± 0.0209 | Mixed | 0.1656 | 7.03 ± 0.53 | 60.07 | 25.47 | 4-(4-Chlorophenyl)-2-(2-(1,2-Dicarba-closo-Dodecaboranylmethylene)Hydrazinyl)Thiazole [4a] | 1.19 | 1.37 | 1.05 | 6.87 ± 0.33 | – |
| 6.15 ± 0.26 | 5.37 ± 0.11 | 6.56 ± 0.12 | 0.145 ± 0.0144 | Activator | 0.0912 | 6.9 ± 1.2 | 64.44 | 27.36 | 4-(4-Bromophenyl)-2-(2-(1,2-Dicarba-closo-Dodecaboranylmethylene)Hydrazinyl)Thiazole [4b] | 1.21 | 1.39 | 1.14 | 7.46 ± 0.13 | – |

| Substance | IC50 [1] [µM] | IC50 (B16F10 (murine melanoma)) [µM] | IC50 [2] [µM] | IC50 (mushroom tyrosinase [4]; [6]) [mM] | Mechanism of Inhibition (mushroom tyrosinase [5]) | Vmax (mushroom tyrosinase [5]) [mM/min] | IC50 (11β-HSD1) [µM] | % of 11β-HSD1 Inhibition 10 μM (11β-HSD1) [%] | % of 11β-HSD2 Inhibition 10 μM (11β-HSD2) [%] | SI HUVEC/A172 [1] | SI HUVEC/ B16F10 (B16F10 (murine melanoma)) | SI HUVEC/ MDA-MB-231 [2] | IC50 [3] [µM] | IC50 (mushroom tyrosinase [4]; rounded values in SAR summary, unit mM, read-out: IC50 tyrosinase inhibition) [mM] |
| --- | --- | --- | --- | --- | --- | --- | --- | --- | --- | --- | --- | --- | --- | --- |
| 2-(2-(1,2-Dicarba-closo-Dodecaboranylmethylene)Hydrazinyl)-4-p-Tolylthiazole [4d] | 7.88 ± 0.98 | > 10 | 6.85 ± 0.86 | 0.121 ± 0.0219 | Mixed | 0.3820 | 9.05 ± 0.25 | 55.78 | 27.83 | 1.06 | – | 1.21 | 8.32 ± 0.09 | 0.121 |
